Measured values: US5801178A, “Aniline derivative having polyunsaturated fatty acid residue and use thereof” (Nippon Shoji Kaish Ltd., priority 1995, dated 1998)

What was measured:
[1] = Reduction of cholesterol in blood of cholesterol-loaded rats; assay type: in vivo, Male slc:SD (SPF) rats; settings: serum total cholesterol; 90 mg/kg/day orally, five days; average of 8 rats; control taken as 100%
Source text: Reduction of cholesterol in blood of rats
Male slc:SD (SPF) rats (4 weeks of age weighing 70-90 g, Japan SLC Inc.) were randomly divided into 8 per group and bred for 3 days on a normal diet (solid diet for test animals, MF, manufactured by Oriental Yeast CO., LTD.). Then, the aforementioned diet supplemented with 5% cholesterol, 10% olive oil and 0.5% cholic acid was freely fed for 10 days. During the last five days, the test compound (Compounds 3-6, 8, 11 and 12) suspended in 0.5% aqueous methylcellulose solution was forcibly administered orally once a day in a dose of 10 ml/kg which contains 90 mg/kg/day of the test compound (total dose of the test compound being 450 mg/kg). The rats were fasted for 16 hours after the final administration and etherized. The blood was taken from the abdominal aorta, and serum was separated by centrifugation to determine the total cholesterol content in the serum. The control group was administered with 0.5% aqueous methylcellulose solution instead of the test compound suspended in 0.5% aqueous methylcellulose solution.
* is an average of 8 rats per group based on the cholesterol content in
blood of control which was taken as 100%.

[2] = tested on: ACAT derived from rat liver; experiment: Inhibitory activity against ACAT derived from rat liver microsome; assay type: biochemical; settings: pH 7.4, 37° C., 30 minutes
Procedure: Inhibitory activity against ACAT derived from rat liver microsome
(§1) Using, as an enzyme source, the microsomal fractions prepared from rat liver in the manner described below under Preparation of Microsome, the inhibitory activity against ACAT in the microsome fractions was determined as in the following. The compound of the present invention was dissolved in dimethyl sulfoxide and used as a sample solution. [1-^14 C] […] Ethanol (1 ml) was added to stop the reaction, and n-hexane (4.5 ml) was added. The reaction mixture was centrifuged at 2,000 rpm for 2 minutes and the upper n-hexane layer was separated and recovered, whereby cholesterol oleate (reaction product) was extracted. n-Hexane was evaporated with a nitrogen gas and the residue was re-dissolved dissolved in n-hexane (50 μl), which was used as a sample for thin-layer chromatography. […] After developing, the spot of cholesterol oleate was colored with iodine. The spot was cut out and dissolved in a xylene scintillator (Aquasol-2, Daiichi Pure Chemicals Co., Ltd.). The amount of cholesterol oleate was determined using a liquid scintillation counter.
The liver was removed from a fasted rat and thoroughly perfused with 0.25M sucrose solution. The liver was weighed, minced with scissors or razor and placed in a Teflon homogenizer. The liver was homogenized with 9 volumes [9 ml per g (wet weight) of liver] of 0.25M sucrose solution or 50 mM Tris-HCl buffer (pH 7.5) containing 0.25M sucrose and 5 mM MgCl2. The homogenate was centrifuged at 8,000-10,000 g for 10-15 minutes. The obtained supernatant was centrifuged at 105,000 g for 60-90 minutes. The sediment obtained from this centrifugation was suspended in 150 mM potassium phosphate buffer (pH 7.4) to give a microsomal fraction.

[3] = Acute toxicity, oral, mice; assay type: in vivo, Male slc:ICR mice
Procedure: Male slc:ICR mice (4 weeks of age, Japan SLC Inc.) were bred for 7 days on a normal diet (solid diet for test animals, Labo MR stock-SLC, manufactured by Japan SLC Inc.). Then, the mice were fasted for 16 hours and divided into 5 per group. The mice were forcibly administered orally with the test compound (Compounds 4, 5 and 9-12) dissolved in corn oil. The mice were further bred on a normal diet for 14 days to observe acute toxicity.

[4] = biological target: T1, ACAT derived from human macrophage (Homo sapiens, UniProt P35610); experiment: Inhibitory activity against ACAT derived from human macrophage (microsomes of TPA-differentiated U937 cells); assay type: biochemical; settings: for Selectivity: Table 1, rat liver ACAT IC50 / human macrophage ACAT IC50; for IC50: human macrophage (U937/TPA) microsome, pH 7.4, 37° C., 30 minutes
T1 construct: Using, as an enzyme source, microsomal fractions prepared in the manner described below under Preparation of Microsome from U937 cells; endogenous in cells; host or cells: U937 cells differentiated with TPA, microsomal fraction
T1 sequence (P35610 1-550): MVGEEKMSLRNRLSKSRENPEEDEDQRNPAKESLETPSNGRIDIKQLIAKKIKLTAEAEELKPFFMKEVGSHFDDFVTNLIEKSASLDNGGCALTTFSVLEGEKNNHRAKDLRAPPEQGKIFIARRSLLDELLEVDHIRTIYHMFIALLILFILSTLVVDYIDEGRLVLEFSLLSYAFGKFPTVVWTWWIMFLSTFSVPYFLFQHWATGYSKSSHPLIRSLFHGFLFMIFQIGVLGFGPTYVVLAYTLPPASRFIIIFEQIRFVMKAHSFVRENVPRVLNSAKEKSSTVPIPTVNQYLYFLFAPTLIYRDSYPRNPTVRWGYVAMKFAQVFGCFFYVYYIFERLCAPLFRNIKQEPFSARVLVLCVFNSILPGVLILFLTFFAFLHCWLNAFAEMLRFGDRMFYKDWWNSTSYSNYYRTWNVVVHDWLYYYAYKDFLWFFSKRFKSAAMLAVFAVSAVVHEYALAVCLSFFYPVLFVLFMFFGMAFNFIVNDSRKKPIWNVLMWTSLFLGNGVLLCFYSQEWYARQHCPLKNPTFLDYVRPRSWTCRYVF
Procedure: Inhibitory activity against ACAT derived from human macrophage
as §1, with “source,” for “source, the”, “prepared” for “prepared from rat liver”, “Microsome from U937 cells [human monocyte-derived cells known to differentiate into macrophages by the addition of TPA (12-O-tetradecanoylphorbol 13-acetate)] differentiated with TPA,” for “Microsome,”, “re-dissolved” for “re-dissolved dissolved”, “with” for “using”
The cells thus scraped and the culture solution were centrifuged at 3,000 rpm for 5 minutes, and the cell fractions obtained as precipitate were once freezed at -70° C. and preserved. The cells preserved at -70° C. were thawed and homogenized at 4° C. in a Teflon homogenizer. The homogenate was centrifuged at 12,000 g for 15 minutes. The precipitate fractions containing nuclea and mitochondria were removed and the obtained supernatant was further centrifuged at 100,000 g for 60 minutes. The supernatant was discarded, and the obtained precipitate fractions were suspended in 150 mM potassium phosphate buffer (pH 7.4) and used as a microsomal fraction.

| Structure (SMILES) | Reduction of cholesterol in cholesterol-loaded rats, %* [1] | IC50 [2] | minimum lethal dose ([3]; mouse, in vivo, po, 20160 min) | Selectivity [4] | IC50 [4] | minimum lethal dose ([3]; single oral administration in corn oil, mice, 14 days observation) |
| --- | --- | --- | --- | --- | --- | --- |
| CCC=CCC=CCC=CCC=CCC=CCC=CCCC(=O)Nc1c(F)cc(F)cc1F [Compound 4, N-(2,4,6-trifluorophenyl)-4,7,10,13,16,19-docosahexaenamide] | 59% | > 500 µM | ≥ 2,000 mg/kg | > 806 | 0.62 µM |  |
| CCC=CCC=CCC=CCC=CCC=CCCCC(=O)Nc1c(C)cc(C)cc1C [Compound 5, N-(2,4,6-trimethylphenyl)-5,8,11,14,17-eicosapentaenamide] | 57% | 43.1 µM |  | 47.9 | 0.9 µM | ≥ 2,000 mg/kg |
| CCC=CCC=CCC=CCC=CCC=CCCCC(=O)Nc1c(C(C)C)cccc1C(C)C [Compound 11, N-(2,6-diisopropylphenyl)-5,8,11,14,17-eicosapentaenamide] | 78% | 2.4 µM |  | 247 | 0.0097 µM |  |
| CCC=CCC=CCC=CCC=CCC=CCC=CCCC(=O)Nc1c(C)cc(C)cc1C [Compound 6, N-(2,4,6-trimethylphenyl)-4,7,10,13,16,19-docosahexaenamide] | 68% | > 500 µM |  | > 3333 | 0.15 µM |  |
| CCC=CCC=CCC=CCC=CCC=CCC=CCCC(=O)Nc1c(C)cccc1C [Compound 8, N-(2,6-dimethylphenyl)-4,7,10,13,16,19-docosahexaenamide] | 77% | 73.9 µM |  | 264 | 0.28 µM |  |
| CCC=CCC=CCC=CCC=CCC=CCCCC(=O)Nc1c(F)cc(F)cc1F [Compound 3, N-(2,4,6-trifluorophenyl)-5,8,11,14,17-eicosapentaenamide] | 71% | > 500 µM |  | > 1852 | 0.27 µM |  |
